Details: 313.14 K, Liquid, Vibrating tube method

CCCCCCCCCC [decane]
Details	mass density [kg/m3]
9156 kPa	722.3
9171 kPa	722.4
9194 kPa	722.3
9210 kPa	722.4
9227 kPa	722.3
9245 kPa	722.2
9261 kPa	722.3
9284 kPa	722.4
9300 kPa	722.4
9323 kPa	722.5
9338 kPa	722.6
9358 kPa	722.5
9374 kPa	722.6
9392 kPa	722.5
9410 kPa	722.6
9431 kPa	722.4
9447 kPa	722.6
9463 kPa	722.7
9479 kPa	722.4
9503 kPa	722.6
9522 kPa	722.6
9538 kPa	722.5
9554 kPa	722.6
9574 kPa	722.7
9587 kPa	722.7
9607 kPa	722.6
9627 kPa	722.6
9646 kPa	722.6
9674 kPa	722.5
9694 kPa	722.8
9717 kPa	722.7
9733 kPa	722.8
9747 kPa	722.7
9770 kPa	722.9
9785 kPa	722.8
9807 kPa	722.8
9828 kPa	722.9
9851 kPa	722.9
9869 kPa	722.8
9892 kPa	722.9
9913 kPa	722.9
9930 kPa	723
9945 kPa	722.9
9970 kPa	722.9
9985 kPa	722.9
10007 kPa	722.8
10022 kPa	723
10046 kPa	723
10062 kPa	723
10088 kPa	723
10107 kPa	723
10128 kPa	723.1
10147 kPa	723.1
10166 kPa	723
10182 kPa	723.1
10199 kPa	723.1
10221 kPa	723.1
10234 kPa	723.2
10262 kPa	723.3
10278 kPa	723.1
10295 kPa	723.2
10317 kPa	723.1
10340 kPa	723.2
10361 kPa	723.2
10381 kPa	723.2
10400 kPa	723.3
10421 kPa	723.3
10437 kPa	723.4
10454 kPa	723.3
10483 kPa	723.4
10497 kPa	723.3
10520 kPa	723.3
10540 kPa	723.4
10567 kPa	723.5
10593 kPa	723.4
10616 kPa	723.5
10634 kPa	723.5
10655 kPa	723.6
10673 kPa	723.6
10694 kPa	723.6
10718 kPa	723.6
10739 kPa	723.6
10757 kPa	723.6
10781 kPa	723.5
10805 kPa	723.6
10821 kPa	723.7
10843 kPa	723.6
10861 kPa	723.7
10876 kPa	723.6
10895 kPa	723.7
10916 kPa	723.7
10935 kPa	723.7
10960 kPa	723.6
10988 kPa	723.7
11007 kPa	723.8
11027 kPa	723.8
11049 kPa	723.8
11070 kPa	723.9
11096 kPa	723.8
11115 kPa	723.9
11141 kPa	723.9
11164 kPa	723.9
11184 kPa	723.9
11210 kPa	723.9
11236 kPa	723.9
11260 kPa	724
11286 kPa	724
11306 kPa	724.1
11326 kPa	724
11344 kPa	724.1
11361 kPa	723.9
11385 kPa	724.2
11406 kPa	724
11429 kPa	724
11459 kPa	724
11480 kPa	724
11497 kPa	724.2
11518 kPa	724.2
11549 kPa	724.3
11570 kPa	724.3
11592 kPa	724.1
11609 kPa	724.3
11631 kPa	724.3
11661 kPa	724.2
11689 kPa	724.3
11711 kPa	724.5
11743 kPa	724.4
11765 kPa	724.3
11794 kPa	724.4
11820 kPa	724.4
11852 kPa	724.4
11886 kPa	724.5
11915 kPa	724.5
11945 kPa	724.4
11976 kPa	724.6
12006 kPa	724.5
12029 kPa	724.6
12060 kPa	724.5
12090 kPa	724.6
12118 kPa	724.7
12149 kPa	724.5
12173 kPa	724.7
12197 kPa	724.7
12233 kPa	724.6
12257 kPa	724.7
12287 kPa	724.9
12324 kPa	724.8
12341 kPa	724.8
12365 kPa	724.9
12382 kPa	724.9
12406 kPa	724.9
12434 kPa	724.8
12459 kPa	724.9
12483 kPa	724.9
12501 kPa	724.9
12523 kPa	725
12552 kPa	725
12574 kPa	725
12596 kPa	724.9
12624 kPa	724.9
12650 kPa	725
12672 kPa	725.1
12695 kPa	725.2
12721 kPa	725.1
12751 kPa	725.1
12774 kPa	725.1
12807 kPa	725.3
12834 kPa	725.2
12857 kPa	725.2
12882 kPa	725.3
12901 kPa	725.2
12923 kPa	725.3
12948 kPa	725.2
12973 kPa	725.3
12992 kPa	725.3
13015 kPa	725.3
13037 kPa	725.5
13059 kPa	725.3
13081 kPa	725.3
13107 kPa	725.5
13127 kPa	725.5
13151 kPa	725.5
13171 kPa	725.4
13187 kPa	725.6
13210 kPa	725.5
13230 kPa	725.5
13253 kPa	725.4
13276 kPa	725.5
13309 kPa	725.5
13333 kPa	725.4
13357 kPa	725.5
13384 kPa	725.7
13405 kPa	725.6
13434 kPa	725.7
13451 kPa	725.8
13475 kPa	725.6
13499 kPa	725.8
13520 kPa	725.7
13538 kPa	725.7
13562 kPa	725.7
13583 kPa	725.7
13607 kPa	725.8
13636 kPa	725.8
13654 kPa	725.8
13682 kPa	726
13714 kPa	725.9
13743 kPa	725.9
13768 kPa	725.9
13797 kPa	725.9
13830 kPa	725.9
13848 kPa	726
13878 kPa	726
13900 kPa	726
13932 kPa	726
13970 kPa	726.1
13987 kPa	726.1
14008 kPa	726.2
14029 kPa	726.1
14050 kPa	726.2
14071 kPa	726.1
14091 kPa	726.2
14119 kPa	726.1
14140 kPa	726.1
14168 kPa	726.2
14196 kPa	726.3
14224 kPa	726.2
14253 kPa	726.3
14277 kPa	726.4
14302 kPa	726.3
14328 kPa	726.3
14353 kPa	726.4
14371 kPa	726.3
14405 kPa	726.4
14426 kPa	726.3
14449 kPa	726.4
14485 kPa	726.5
14511 kPa	726.5
14540 kPa	726.5
14570 kPa	726.5
14600 kPa	726.4
14630 kPa	726.5
14663 kPa	726.6
14693 kPa	726.7
14719 kPa	726.7
14750 kPa	726.6
14780 kPa	726.7
14811 kPa	726.8
14830 kPa	726.7
14861 kPa	726.7
14892 kPa	726.8
14919 kPa	726.8
14944 kPa	726.8
14964 kPa	726.8
14984 kPa	726.8
15008 kPa	726.8
15036 kPa	726.9
15068 kPa	726.9
15100 kPa	727
15125 kPa	727
15154 kPa	726.9
15190 kPa	727
15219 kPa	727
15248 kPa	727
15273 kPa	727.1
15314 kPa	727.1
15343 kPa	727.2
15372 kPa	727.2
15397 kPa	727
15423 kPa	727.1
15441 kPa	727.2
15467 kPa	727.3
15485 kPa	727.2
15504 kPa	727.2
15526 kPa	727.2

From the NIST ThermoML archive (doi:10.1021/je800110r)
